Laboratory results: patent US11014896B2, “TRPA1 and TRPV4 inhibitors and methods of using the same for organ-specific inflammation and itch” (Duke University, priority 2014, dated 2021)
“Also recorded” adds a separate entry of the source. Where a SMILES comes first, the peptide text is derived from it. [ ]: non-standard residue; d: D form.

Tests used:
[1] = system: primary mouse keratinocytes (1° MK); experiment: UVB-evoked Ca++ signaling in primary mouse keratinocytes (fluo-4 imaging); type: cell-based; conditions: for ET1-augmented, UVB-induced Ca++ transients: UVB and ET1 co-exposure; for UVB-evoked Ca++ signaling (ΔF/F0): GSK205 20 μM
Procedure: Ca++ imaging of 1° MK was conducted following routine procedures. For UVB stimulation, a customized device was built. The system comprised a printed circuit board for electrical interconnects and mechanical support and an ultraviolet light-emitting diode (UV LED).
The operating wavelength was 295 nm (FIG. 2A), with a full-width half-max of 12 nm. The optical power was 500 mW. The focal point was aimed at the plane of the upper surface of the quartz coverslip, which was used to minimize UV absorption along the optical path towards the cells (FIG. 2A-FIG. 2C). The optical intensity at the focal point was estimated to be 150 mW/mm^2.
Ca++ imaging of mouse 1° MK in response to chemical activation of TRPV4 was conducted after loading with 2 μM fura2-AM, following a ratiometric Ca2+ imaging protocol with 340/380 nm […] for dual excitation. Ratios of emissions were acquired at 0.5 Hz. ΔR/R0 was determined as the fraction of the increase of a given ratio over baseline ratio, divided by baseline ratio. For stimulation of cells with UVB, where fura-2 was not suitable because of the proximity of stimulation with 340/380 nm and 295 nm, 2 μM fluo4-AM was used instead. Ca++ imaging was carried out at 488 nm excitation, acquisition of emissions at 0.5 Hz, expressed as ΔF/F0. In the custom-built UV optical system, UV LEDs were capped with a ball lens, a transparent optical window in the shape of a hemispherical lens (FIG. 2B). The LED output optical beam focused at 15-20 mm from the lens, with a spot diameter of approximately 1.5-2.0 mm (FIG. 2C). […] The thermal equilibration stage was set for physiological temperature.

ET1 [2] = experiment: ET1 secretion by non-stimulated 1° MK (ELISA); type: cell-based, mouse
ET1 [3] = experiment: ET1 expression by UVB-exposed 1° MK (immunocytochemistry); type: cell-based, mouse; conditions: cells preincubated with inhibitor
Procedure: 1° MK were exposed to UVB using the UV optical system (295 nm LED). 24 hours later the cells were fixed and fluorescently immunolabeled for ET1. Digital images were captured and subjected to morphometry.
Mouse keratinocytes were cultured on collagen coated quartz coverslips and then stimulated from the bottom using the previously mentioned UV optical system using the 295 nm LED. 24 hours later the cells were fixed in 4% formaldehyde in PBS for 20 minutes, permeabilized with 0.1% Triton X-100 in PBS for 10 minutes, washed, then blocked in 10% normal goat serum in PBS for 45 minutes. Coverslips were incubated overnight with primary antibody mouse anti-ET1 (1:200; Abcam), washed three times in PBS and incubated with secondary antibody for 2 hours at 25° C. Coverslips were washed three times in PBS, once with double-distilled H2O. Digital images were captured using a 40× immersion lens on the BX61 Olympus upright microscope. Morphometric analysis was conducted using ImageJ freeware with tailored regions-of-interest.

TRPV4 = TRPV4 (Homo sapiens, UniProt Q9HBA0); experiment: TRPV4-mediated calcium influx in N2a cells with targeted expression of human TRPV4; type: cell-based; design: expressed in transfected cells; host or cells: N2a cells; conditions: 2.5 μM inhibitor, pre-incubation 10 min; TRPV4 activated with 10 nM GSK101
Procedure: Compounds (GSK205, 16-12, 16-13, 16-14, 16-18, 16-8, and 16-8/18hy) were tested for their effect on TRPV4-mediated calcium influx in N2a cultured cells with targeted expression of human TRPV4. Ca2+ imaging was performed according to Li et al. (Environ. Health Perspect. 2011, 119, 784-93) and Moore et al. (Proc. Natl. Acad. Sci. U.S.A. 2013, 110, E3225-E3234). Briefly, Ca2+ imaging of primary mouse epidermal keratinocytes (1° MK) in response to chemical activation of TRPV4 was conducted after loading with 2 μM fura2-AM, following a ratiometric Ca2+-imaging protocol with 340/380 nm blue light for dual excitation. Ratios of emissions were acquired at 0.5 Hz. ΔR/R0 was determined as the fraction of the increase of a given ratio over baseline ratio, divided by baseline ratio. For stimulation of cells with UVB, where fura-2 was not suitable because of the proximity of stimulation with 340/380 nm vs. 295 nm, 2 μM fluo4-AM was used instead. Ca2+ imaging was carried out at 488 nm excitation, acquisition of emissions at 0.5 Hz, expressed as ΔF/F0. TRPV4 was activated with 10 nM GSK101, a specific activator, which had no effect on RFP-transfected cells. Each of the […] compounds were added to a concentration of 2.5 μM, and its effect was observed.

[4] = Formalin-evoked nocifensive (rubbing) behavior, whisker-pad injection, in vivo pain model in mice; design: species or system mouse
Procedure: Compounds were tested for their effect in reducing pain using an in vivo pain model in mice. For mouse formalin-evoked irritant behavior measurements, mice were well-fed, well-rested, and tested at the same time of day, at the same time-point of their circadian rhythm. They were allowed to acclimate to a plexiglas chamber for at least 30 min before testing, and received 10 μL subcutaneous injection of 4% of formalin (diluted from an aqueous solution of commercial 37% formaldehyde with normal saline (NS)) through a 30-gauge needle into the right whiskerpad, as further detailed in Luccarini et al. (J. Pain, 2006, 7, 908-914). Normal saline was used as control injection. After injection, mice were immediately placed back into the chamber and the rubbing behavior was recorded by a private consumer-type video-camera for a 45 min observation period. The recording time was divided into 9 blocks of 5 min, and a nociceptive score was determined per block by measuring the time that the animals spent rubbing the injected area predominantly with the ipsilateral fore-paw and rarely with hind-paw. This rubbing behavior with fore-paw is evoked by pain, which is distinct from itch behavior. Behavioral analysis was conducted by observers blinded to treatment.
To investigate the effects of the specific compounds GSK205, 16-8, and 16-8/18hy on formalin-induced nociceptive behavior, mice received a single subcutaneous injection of the compounds into the whiskerpad (10 μL, dissolved in 4% DMSO) 15 min before formalin injection. Control animals received the same volume of NS, 4% DMSO.

human TRPV3 = molecular target: T1, human TRPV3 (Homo sapiens, UniProt Q8NET8); experiment: Ca2+ signal in N2a cells transfected with human TRPV3; type: cell-based; conditions: stimulation with camphor
T1 construct: expressed in transfected cells; host or cells: N2a cells
T1 sequence (Q8NET8 1-790): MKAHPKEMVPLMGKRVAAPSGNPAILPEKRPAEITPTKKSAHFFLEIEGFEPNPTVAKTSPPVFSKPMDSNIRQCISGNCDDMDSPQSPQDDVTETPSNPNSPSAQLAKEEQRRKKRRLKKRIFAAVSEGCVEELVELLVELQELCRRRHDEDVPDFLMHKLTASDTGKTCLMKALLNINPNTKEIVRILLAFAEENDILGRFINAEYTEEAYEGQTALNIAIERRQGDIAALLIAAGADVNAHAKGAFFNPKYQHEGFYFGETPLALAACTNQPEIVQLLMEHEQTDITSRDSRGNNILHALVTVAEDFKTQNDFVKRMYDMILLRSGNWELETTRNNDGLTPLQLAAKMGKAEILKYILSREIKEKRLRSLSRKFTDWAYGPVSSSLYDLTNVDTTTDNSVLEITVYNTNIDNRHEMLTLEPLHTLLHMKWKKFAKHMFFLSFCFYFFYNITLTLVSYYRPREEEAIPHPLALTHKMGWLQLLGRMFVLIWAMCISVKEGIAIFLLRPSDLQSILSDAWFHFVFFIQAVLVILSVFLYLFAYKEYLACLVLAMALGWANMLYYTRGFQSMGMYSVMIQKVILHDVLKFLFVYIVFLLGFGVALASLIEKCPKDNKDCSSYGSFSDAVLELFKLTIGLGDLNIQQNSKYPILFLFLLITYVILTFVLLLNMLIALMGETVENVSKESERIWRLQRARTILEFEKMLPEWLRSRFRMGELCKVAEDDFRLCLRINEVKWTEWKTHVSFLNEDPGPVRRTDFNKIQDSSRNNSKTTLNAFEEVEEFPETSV
Procedure: (§1) Compounds were tested for their effect on TRPV1, TRPV2, and TRPV3. Methods were similar to those described in Example 15. Briefly, N2a cells were transfected with human TRPV1, TRPV2, or TRPV3. eGFP-transfection was used as control. For specific stimulation of TRPV1, 5 μM capsaicin was used. For stimulation of TRPV2, hypotonicity (260 mosmol/L) was used, based on previous reports of TRPV2 being osmotically responsive. N2a cells were not responsive to hypotonicity, and neither were control-transfected cells. For TRPV3-expressing cells, camphor (20% of a commercially available stock solution) was used. […] Stimulation and control protocols were applied as for TRPA1-expressing N2a cells as detailed above in Example 15.

human TRPV2 = molecular target: T2, human TRPV2 (Homo sapiens, UniProt Q9Y5S1); experiment: Ca2+ signal in N2a cells transfected with human TRPV2; type: cell-based; conditions: stimulation with hypotonicity (260 mosmol/L)
T2 construct: expressed in transfected cells; host or cells: N2a cells
T2 sequence (Q9Y5S1 1-764): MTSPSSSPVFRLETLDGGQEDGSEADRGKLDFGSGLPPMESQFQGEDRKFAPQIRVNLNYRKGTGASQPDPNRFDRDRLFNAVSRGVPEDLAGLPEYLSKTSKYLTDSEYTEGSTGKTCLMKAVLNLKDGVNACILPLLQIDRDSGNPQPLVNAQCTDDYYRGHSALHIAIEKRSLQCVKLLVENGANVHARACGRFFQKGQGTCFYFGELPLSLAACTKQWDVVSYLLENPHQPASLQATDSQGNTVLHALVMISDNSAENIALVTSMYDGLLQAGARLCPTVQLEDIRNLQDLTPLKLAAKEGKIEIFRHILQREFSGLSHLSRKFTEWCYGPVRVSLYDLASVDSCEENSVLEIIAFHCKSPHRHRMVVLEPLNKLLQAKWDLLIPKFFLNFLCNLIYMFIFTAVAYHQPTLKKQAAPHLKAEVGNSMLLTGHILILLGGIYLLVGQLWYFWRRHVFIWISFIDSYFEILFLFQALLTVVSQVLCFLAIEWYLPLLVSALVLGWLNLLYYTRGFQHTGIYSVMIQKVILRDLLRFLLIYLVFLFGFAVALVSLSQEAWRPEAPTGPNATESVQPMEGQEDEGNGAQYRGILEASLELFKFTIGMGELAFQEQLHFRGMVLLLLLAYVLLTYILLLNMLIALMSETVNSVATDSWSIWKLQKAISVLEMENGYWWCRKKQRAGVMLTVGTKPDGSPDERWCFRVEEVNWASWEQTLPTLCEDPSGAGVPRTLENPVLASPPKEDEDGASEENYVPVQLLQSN
Procedure: as §1

human TRPA1 = molecular target: T3, human TRPA1 (Homo sapiens, UniProt O75762); experiment: Ca2+ transient in N2a cells transfected with human TRPA1; type: cell-based; conditions: 5 μM compound
T3 construct: expressed in transfected cells; host or cells: N2a cells, pcDNA3.1 plasmid, co-transfected with an eGFP plasmid
Procedure: Compounds were tested for their effect on TRPA1. N2a permanent cells were transfected with human TRPA1 cDNA, using a pcDNA3.1 expression plasmid. They were co-transfected with eGFP-expressing plasmid, or, for control, with eGFP plasmid only.

human TRPV1 = molecular target: T4, human TRPV1 (Homo sapiens, UniProt Q8NER1); experiment: Ca2+ signal in N2a cells transfected with human TRPV1; type: cell-based; conditions: stimulation with 5 μM capsaicin
T4 construct: expressed in transfected cells; host or cells: N2a cells
Procedure: as §1

Chain of TRPV4 (Q9HBA0 whole entry): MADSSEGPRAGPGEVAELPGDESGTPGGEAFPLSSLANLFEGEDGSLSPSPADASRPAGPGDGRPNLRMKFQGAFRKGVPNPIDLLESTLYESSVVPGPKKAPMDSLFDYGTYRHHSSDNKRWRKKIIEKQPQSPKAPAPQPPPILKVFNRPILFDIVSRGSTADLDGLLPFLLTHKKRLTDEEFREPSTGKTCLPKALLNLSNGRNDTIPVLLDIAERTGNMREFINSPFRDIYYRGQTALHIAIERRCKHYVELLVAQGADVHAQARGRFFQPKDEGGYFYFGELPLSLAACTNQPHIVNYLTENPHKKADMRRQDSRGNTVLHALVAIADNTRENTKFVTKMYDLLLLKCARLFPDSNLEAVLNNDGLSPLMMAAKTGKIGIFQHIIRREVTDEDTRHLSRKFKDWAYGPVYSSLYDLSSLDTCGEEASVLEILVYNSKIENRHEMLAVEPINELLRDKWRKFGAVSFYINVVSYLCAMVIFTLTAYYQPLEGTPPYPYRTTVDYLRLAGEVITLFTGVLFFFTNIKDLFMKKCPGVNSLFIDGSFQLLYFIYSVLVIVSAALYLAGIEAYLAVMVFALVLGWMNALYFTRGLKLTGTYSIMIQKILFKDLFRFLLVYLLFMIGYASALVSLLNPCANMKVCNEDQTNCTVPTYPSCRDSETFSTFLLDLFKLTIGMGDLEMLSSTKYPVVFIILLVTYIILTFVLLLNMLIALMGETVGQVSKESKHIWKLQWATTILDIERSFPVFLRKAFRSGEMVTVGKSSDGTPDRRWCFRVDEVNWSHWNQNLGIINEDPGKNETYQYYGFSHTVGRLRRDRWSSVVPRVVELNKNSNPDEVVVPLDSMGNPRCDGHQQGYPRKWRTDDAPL
T3 sequence (O75762 whole entry): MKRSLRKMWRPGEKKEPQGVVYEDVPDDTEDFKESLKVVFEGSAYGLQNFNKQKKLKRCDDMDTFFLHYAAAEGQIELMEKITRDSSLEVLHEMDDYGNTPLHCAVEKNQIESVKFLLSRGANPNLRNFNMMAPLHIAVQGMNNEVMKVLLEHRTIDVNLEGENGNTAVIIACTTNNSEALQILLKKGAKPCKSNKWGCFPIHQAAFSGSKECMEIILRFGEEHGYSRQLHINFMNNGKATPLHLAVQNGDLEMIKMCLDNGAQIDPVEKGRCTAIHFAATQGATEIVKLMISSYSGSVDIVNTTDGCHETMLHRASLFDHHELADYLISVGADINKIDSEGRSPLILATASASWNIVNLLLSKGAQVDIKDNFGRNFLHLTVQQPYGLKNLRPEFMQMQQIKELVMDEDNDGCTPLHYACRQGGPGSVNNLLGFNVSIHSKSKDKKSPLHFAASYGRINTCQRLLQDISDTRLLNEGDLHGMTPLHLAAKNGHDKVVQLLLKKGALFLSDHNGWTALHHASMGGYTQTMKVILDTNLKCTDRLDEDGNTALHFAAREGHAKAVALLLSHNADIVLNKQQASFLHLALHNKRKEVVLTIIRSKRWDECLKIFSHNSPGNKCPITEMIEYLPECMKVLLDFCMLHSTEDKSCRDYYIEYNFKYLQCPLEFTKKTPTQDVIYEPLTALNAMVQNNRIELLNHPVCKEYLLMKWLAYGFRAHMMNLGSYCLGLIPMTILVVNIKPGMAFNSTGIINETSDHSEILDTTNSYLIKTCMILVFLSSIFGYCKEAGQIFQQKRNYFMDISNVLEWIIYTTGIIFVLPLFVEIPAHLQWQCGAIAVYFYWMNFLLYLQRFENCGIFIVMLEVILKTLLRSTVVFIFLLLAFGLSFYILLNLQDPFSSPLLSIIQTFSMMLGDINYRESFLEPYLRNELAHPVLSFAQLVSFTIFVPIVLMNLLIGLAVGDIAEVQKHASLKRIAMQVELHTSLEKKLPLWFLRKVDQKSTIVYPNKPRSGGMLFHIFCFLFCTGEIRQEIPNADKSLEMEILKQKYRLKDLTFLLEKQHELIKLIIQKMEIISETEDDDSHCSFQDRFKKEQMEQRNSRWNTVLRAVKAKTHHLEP
T4 sequence (Q8NER1 whole entry): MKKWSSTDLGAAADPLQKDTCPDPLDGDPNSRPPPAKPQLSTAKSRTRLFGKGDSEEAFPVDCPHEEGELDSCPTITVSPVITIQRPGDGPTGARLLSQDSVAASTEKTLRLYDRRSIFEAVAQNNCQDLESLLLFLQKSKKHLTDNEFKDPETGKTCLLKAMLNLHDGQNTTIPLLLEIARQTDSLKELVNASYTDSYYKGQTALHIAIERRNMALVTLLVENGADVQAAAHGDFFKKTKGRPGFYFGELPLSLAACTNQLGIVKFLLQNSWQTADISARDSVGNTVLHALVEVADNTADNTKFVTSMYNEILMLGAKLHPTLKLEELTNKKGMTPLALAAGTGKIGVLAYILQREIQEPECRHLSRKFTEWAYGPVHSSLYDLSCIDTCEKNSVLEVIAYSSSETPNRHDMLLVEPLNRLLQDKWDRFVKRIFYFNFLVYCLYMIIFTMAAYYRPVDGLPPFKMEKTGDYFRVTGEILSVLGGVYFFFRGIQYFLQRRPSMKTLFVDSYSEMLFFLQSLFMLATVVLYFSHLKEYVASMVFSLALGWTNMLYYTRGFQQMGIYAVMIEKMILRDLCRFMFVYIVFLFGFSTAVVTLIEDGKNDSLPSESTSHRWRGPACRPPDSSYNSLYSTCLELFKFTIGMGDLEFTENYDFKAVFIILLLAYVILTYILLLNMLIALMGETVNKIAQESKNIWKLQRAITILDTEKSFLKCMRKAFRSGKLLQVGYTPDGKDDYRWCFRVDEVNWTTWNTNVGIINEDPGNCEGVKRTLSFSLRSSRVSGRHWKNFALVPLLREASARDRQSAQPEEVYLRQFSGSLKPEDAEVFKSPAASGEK

SMILES: CCCC[C@@H](NC(=O)[C@@H](Cc1cn(C(=O)OC)c2ccccc12)NC(=O)[C@H](CC(C)(C)C)NC(=O)N1[C@H](C)CCC[C@@H]1C)C(=O)O [BQ788]
- ET1-augmented, UVB-induced Ca++ transients [1]: attenuated

SMILES: O=C(O)C(Cc1ccc2c(c1)oc1ccccc12)NCP(=O)(O)O (centres unmarked) [CGS35066]
- ET1 secretion into supernatant (relative ET1 concentration) (ET1 [2]): down-regulation
- ET1 immunoreactivity (ET1 [3]): significant down-regulation
- UVB-evoked Ca++ signaling (ΔF/F0) [1]: significantly diminished; also recorded: significant attenuation

SMILES: COc1ccc2c(c1)CC[C@@H]1[C@@H]2CC[C@]2(C)[C@@H](NCCCCCCN3C(=O)C=CC3=O)CC[C@@H]12 [Compound U73122]
- ET1 secretion into supernatant (relative ET1 concentration) (ET1 [2]): down-regulation
- ET1 immunoreactivity (ET1 [3]): dampened ET1 expression; also recorded: significant down-regulation
- UVB-evoked Ca++ signaling (ΔF/F0) [1]: virtually eliminated; also recorded: strongly reduced

SMILES: CCN(CCc1ccc(Nc2nc(-c3cccnc3)cs2)cc1)Cc1ccccc1 [Compound 16-18]
- inhibition of TRPV4-mediated calcium influx (peak calcium concentration in the cells) (TRPV4): most potent

SMILES: CC(C)C[C@@H]1NC(=O)[C@@H](C(C)C)NC(=O)[C@@H]2CCCN2C(=O)[C@@H](CC(=O)O)NC(=O)[C@@H](Cc2c[nH]c3ccccc23)NC1=O [BQ123] (cyclo(L[dW][dD]P[dV]))
- ET1-augmented, UVB-induced Ca++ transients [1]: attenuated

SMILES: CCN(CCc1ccc(Nc2nc(-c3ccccc3)cs2)cc1)Cc1ccccc1 [Compound 16-8/18hy]
- formalin-induced nocifensive behavior at the 45-min time-point ([4]; 0.5 mM/10 μL, 45-min time-point): reversal to control levels
- formalin-induced nocifensive behavior, time course ([4]; 0.5 mM/10 μL, FIG. 21D): significantly attenuated nocifensive behavior
- formalin-induced nocifensive behavior, quantitation, in particular second phase ([4]; compounds pre-injected at 0.5 mM/10 μL into whiskerpad 15 min before 4% formalin): significant attenuation of nocifensive behavior
- Ca2+ transience on TRPV3 stimulation (human TRPV3): not affected
- Ca2+ transience on TRPV2 stimulation (human TRPV2): not affected
- inhibition of TRPV4-mediated calcium influx (peak calcium concentration in the cells) (TRPV4): did not show enhanced inhibition over 16-8
- inhibitory activity against human TRPA1 (human TRPA1): inhibitory activity
- Ca2+ transience on TRPV1 stimulation (human TRPV1): not affected

SMILES: CC(C)NCCN(C(C)C)S(=O)(=O)c1ccc(Cl)cc1Cl [RN1734]
- ET1 secretion into supernatant (relative ET1 concentration) (ET1 [2]): significant down-regulation
- ET1 immunoreactivity (ET1 [3]): diminished; also recorded: significant down-regulation

SMILES: C=C(C)CCO[P@@](=O)(O)OP(=O)(O)O [IPP, isopentenyl pyrophosphate]
- UVB-evoked Ca++ signaling (ΔF/F0) [1]: no effect; also recorded: not inhibited
